Test results published in patent publication US20080050387A1, “Non-Androgen Dependent Roles for Androgen Receptor and Non-Androgen Related Inhibitors of Androgen Receptor” (priority 2003, published 2008).

How the values were obtained:
[1] = system: MAPK (GAL4-Elk1 transactivation); test: GAL4-Elk1 reporter gene assay (MAPK activation) in MCF7 cells; type: cell-based, human
Protocol: Cells were plated in 96-well plates and plasmids at 0.5 μg per well were transfected into cells using SuperFect (Qiagen). The medium was changed 2 h after transfection and cells were cultured in the medium containing 10% CDS-FBS or 0.2% HI-FBS for 16 h, followed by treatment with 50 ng/ml EGF, 100 ng/ml IGF-1,100 ng/ml HRG-α 0.1 nM E2, or 1 nM DHT for another 16 h. Cells were then harvested and the luciferase activity was analyzed using Dual-Luciferase Reporter Assay System (Promega). 5 ng pRL-TK per well was used as internal control.

[2] = system: AR expression in AR^+/+ MCF7 cells; test: AR siRNA transfection of AR+/+ MCF7 cells: Ki67 immunostaining, Ki67 and c-myc mRNA, S-phase entry; type: cell-based, human
Protocol: All animal experimentation was conducted in accordance with accepted standards of humane animal care. Tissues were fixed in 4% paraformaldehyde for 24 h at 4° C. Paraffin-embedded tissues were sectioned (5-7 μm) onto Probe-On Plus charged slides (Fisher Scientific, Pittsburgh, Pa.). Fresh mammary gland tissues were frozen in liquid nitrogen and stored at −80° C. before RNA extraction. 3 μg of total RNA was reverse-transcribed (RT) and subjected to real-time PCR using iCycle (Bio-Rad). Primer sequences were designed by Beacon Designer II software (Bio-Rad) and the formula used were described previously (Bieche et al. 2001). β-Actin was used as an internal control.
For IHC, sections were heated at 55° C. at least 2 h, deparaffinized in xylene, rehydrated, and washed in Tris-buffered saline (TBS)/pH 8.0. For antigen retrieval, slides were microwaved in 0.01 M sodium citrate/pH 6.0, and immersed with 1% hydrogen peroxide in methanol for 30 min, then blocked with 20% normal goat serum in TBS for 60 min. After washing with PBS, sections were incubated for 90 min in different antibody of diluted 1:200 to 1:500 in TBS containing 1% bovine serum albumin (BSA), followed by goat anti-rabbit biotinylated secondary antibody diluted 1:300 in TBS containing 1% BSA. Then sections were incubated with ABC solution for 30 min, followed by development with DAB peroxidase substrate kit (Vector Laboratories) for 5 min. Slides were counterstained with hematoxylin for 30 sec, then dehydrated, cleaned in xylene, and mounted. Primary antibody was replaced with normal rabbit IgG or 1% BSA in TBS for negative controls. For BrdU labeling, BrdU reagent and BrdU staining kit were purchased from Zymed Laboratories.
A small interfering RNA was expressed in mammalian cells by transfection of a DNA-based vector BS/U6 (Sui et al. 2002) containing a homologous sequence ([…]-TAGCTAC SEQ ID NO:9), a 6-bp spacer (CTCGAG), an inverted homologous sequence ([…] SEQ ID NO:10), and 5 Ts, at the transcription initiation site of the U6 promoter. See SEQ ID NO. 11 and 12 for fall AR siRNA.

MAPK = details: cited from earlier work
AR [3] = test: Mammalian two-hybrid assay hRad9 / AR in PC-3 cells; type: cell-based, human
Protocol: PC-3, CWR22R, and LNCaP cell lines were maintained in […] supplemented with 10% fetal calf serum (FCS). Transient transfection for luciferase assays was carried out in 24-well plates (5×10^4 cells per well) using SuperFect as described previously (Lin, H. K., et al., Embo J 21:4037-48 (2002)). DNA mixtures in transfection assay were indicated in each figure. The total amount of transfected DNA was kept constant (1 μg) by adding the corresponding amounts of empty expression plasmids. After transfection, cells were cultured in […] supplemented with 5% charcoal-stripped FCS in the presence or absence of 10 nM dihydrotestosterone (DHT) for 18 h. Luciferase assays were performed as previously described (Yang, L., et al., J Biol Chem 278:16820-7 (2003)). In Western blotting assays, CWR22R or LNCaP cells were transfected by electroporation using 5×10^6 cells/0.4 ml of RPMI medium containing 2% FCS plus 9 μg of the indicated plasmids. 1 μg of EGFP expression vector was used for transfection efficiency. Electroporation was performed at 250 V and 950 μF using Gene Pulser II (Bio-Rad)

CWR22R cells = test: MTT growth assay of stably transfected CWR22R cells; type: cell-based, human; details: CWR22R-S9A-GSK3β cells, 10 nM DHT, 2 μg/ml doxycycline, 5 days
Protocol: The MTT assay is a quantitative colorimetric assay for mammalian cell survival and proliferation. The 5×10^3 CWR22R cells were seeded in 24-well plates and incubated in RPMI medium 1640 with 5% CS-FCS for 48 h. Cells were then treated with ethanol, 10 nMDHT, and/or 2 μg/ml doxycycline for another 5 days. Then 200 μl of MTT (5 mg/ml; Sigma) was added into the each well with 1 ml of medium for 3 h at 37° C. After incubation, 2 ml of 0.04 M HCl in isopropyl alcohol was added into each well. After 5-min incubation at room temperature, the absorbance was read at a test wavelength of 570 nm.

AR [4] = test: Luc reporter assay in stably transfected CWR22R cells; type: cell-based, human; details: CWR22R-S9A-GSK3β cells, doxycycline induction
Protocol: (§1) COS-1 and PC-3 cells were maintained in early to mid-log phase in DMEM medium, supplemented with 10% fetal bovine serum (FBS), 50 units/ml penicillin and 50 μg/ml streptormnycin in incubators with humidified air and 5% carbon dioxide at 37° C. LNCaP cells were maintained in RPMI (GIBCO/BRL) medium. Twenty-four h prior to transfection, cells washed with Hanks' buffered saline solution, trypsinized, and seeded to be a density of 40-60% confluence for transfection. Cells in 12 well plates were refed with fresh medium 2 hours before transfection and transfected according to the “SuperFect Transfection” instructions (QIAGEN). After 2-3 h incubation, cells were treated with medium supplemented with charcoal-dextran treated FBS containing either ethanol or ligands. Cells were further incubated at 37° C. for 24 h, washed with PBS, and harvested.
The S9A-GSK3β gene was inserted into pBig vector with hygromycin resistance. The S9A-GSK3β-transfected CWR22R cells were selected and maintained in RPMI medium containing 50 μg/ml hygromycin (GIBCO).

AR [5] = test: AR transactivation luciferase assay in COS-1 cells with GSK3β; type: cell-based, human; details: ARE4-Luc, 10 nM DHT
Protocol: as §1
Target sequence in this assay (P10275 with tags, fused parts or gaps DEL79-80/DUP473-473): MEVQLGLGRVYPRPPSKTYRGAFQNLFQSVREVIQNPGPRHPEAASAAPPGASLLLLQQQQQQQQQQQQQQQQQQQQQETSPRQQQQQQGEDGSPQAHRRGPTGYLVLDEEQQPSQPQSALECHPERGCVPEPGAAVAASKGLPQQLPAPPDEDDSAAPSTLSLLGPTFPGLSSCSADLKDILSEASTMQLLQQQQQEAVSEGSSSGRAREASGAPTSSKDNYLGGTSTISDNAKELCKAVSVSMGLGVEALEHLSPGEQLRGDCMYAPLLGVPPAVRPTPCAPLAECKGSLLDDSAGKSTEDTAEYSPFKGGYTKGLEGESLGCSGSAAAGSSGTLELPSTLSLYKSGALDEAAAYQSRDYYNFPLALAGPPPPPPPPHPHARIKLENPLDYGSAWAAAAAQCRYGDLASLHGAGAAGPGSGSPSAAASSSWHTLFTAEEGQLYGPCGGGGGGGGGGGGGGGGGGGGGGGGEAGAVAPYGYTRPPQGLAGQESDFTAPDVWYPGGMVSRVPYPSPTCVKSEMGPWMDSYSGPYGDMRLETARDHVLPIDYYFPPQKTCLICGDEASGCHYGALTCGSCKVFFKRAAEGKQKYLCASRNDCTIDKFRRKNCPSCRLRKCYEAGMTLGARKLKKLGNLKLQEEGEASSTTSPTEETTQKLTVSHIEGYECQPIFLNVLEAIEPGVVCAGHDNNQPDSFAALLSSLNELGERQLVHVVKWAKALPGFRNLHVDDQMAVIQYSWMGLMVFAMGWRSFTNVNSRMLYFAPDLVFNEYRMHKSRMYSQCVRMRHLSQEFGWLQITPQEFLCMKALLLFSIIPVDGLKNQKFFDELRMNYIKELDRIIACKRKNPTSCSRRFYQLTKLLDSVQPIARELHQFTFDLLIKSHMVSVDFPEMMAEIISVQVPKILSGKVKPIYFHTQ

AR [6] = test: TSA effect on AR transactivation, reporter assay in COS-1 cells; type: cell-based, human; details: 1 nM TSA
Protocol: H1299 and COS-1 cells were maintained in Dulbecco's modified Eagle's medium (DMEM) (Life Technologies, Inc.) supplemented with 10% heat inactivated fetal bovine serum (FBS). LNCap cells were maintained in RPMI 1640 supplemented with […]. All media contain 100 units penicillin, 100 μg/ml streptomycin and 2 mM L-glutamine. Cells were seeded to a density of 50-60% confluency for transfection. In transfections where H1299 and COS-1 cells were used, the calcium phosphate precipitation method was used as described (Pan H J, et al. 1999. Endocrine 11:321-327) unless otherwise noted. […] In other reporter gene assays, where ligand treatment was required, cell culture media were changed to DMEM containing 10% charcoal-dextran-stripped FBS (CD-FBS) 2 h before transfection. After 16-18 h transfection, cells were treated with medium containing either vehicle or ligands for another 20-24 h and then cells were harvested. With LNCap cells transfection, the cells were treated with fresh RPMI 1640 containing 10% CD-FBS before transfection with SuperFect performed according to the manufacturer's protocol (Qiagen). After transfection, cells were allowed to recover in fresh RPMI 1640 containing 10% CD-FBS for 8-12 h, and then treated with either vehicle or ligands for another 20-24 h before harvesting. Each experiment was repeated at least three times.

COS-1 and H1299 = test: TSA toxicity in transfected cells
[7] = AR siRNA-transfected AR^+/+ MCF7 cells

Molecule: AR siRNA: small interfering RNA against AR expressed from the DNA-based vector BS/U6 (GGGCCCCTGGATGGATAGCTACCTCGAGGTAGCTATCCATCCAGGGGCC)
- IGF-I/EGF/HRG-α-induced MAPK activation ([1]; AR^+/+ MCF7 cells transfected with AR siRNA): diminish
- Ki67 immunostaining [2, 7]: lower degree
- mRNA level of Ki67 reduced by [2, 7]: 42%
- mRNA level of c-myc reduced by [2, 7]: 81%
- number of cells entering S-phase of the cell cycle ([2]; AR^+/+ MCF7 cells, IGF-I/EGF/HRG-α): diminish

Molecule: N#CC(=C(/N)Sc1ccccc1N)/C(C#N)=C(\N)Sc1ccccc1N [U0126, reference compound]
- AR-activated GAL4-Elk1 activity ([1]; AR-FL-activated, pG5-luc reporter): diminished

Molecule: COc1cccc(-c2cc(=O)c3ccccc3o2)c1N [PD098059]
- Her2/Neu-, H-Ras- or C-myc-initiated mammary tumor growth (MAPK; Amundadottir and Leder 1998): inhibit
- mammary gland alveolar morphogenesis (MAPK; Niemann et al. 1998): inhibit

Molecule: CC(C)(O)C(=O)Nc1ccc([N+](=O)[O-])c(C(F)(F)F)c1 [HF, hydroxyflutamide, reference compound]
- androgen-induced interaction between AR and hRad9 (AR [3]; 10^−5 M HF, 10^−8 M DHT): inhibited

Molecule: S9A-GSK3β: constitutively active form of GSK3β
- cell growth (MTT assay) (CWR22R cells): obvious growth arrest
- AR transactivation reduced by (AR [4]): 30%
- effect on AR activity (AR [5]): strongly inhibited

Molecule: CC(/C=C/C(=O)NO)=C\[C@@H](C)C(=O)c1ccc(N(C)C)cc1 [TSA, trichostatin A]
- DHT-induced AR transactivation (AR [6]): enhanced
- TSA concentration causing significant cell death (COS-1 and H1299): ≥ 10 nM
- toxic effect (COS-1 and H1299; 1 nM TSA): no obvious toxic effect

Molecule: PKKFRSLFFGSI [GAL4-FXXLF fusion peptides]
- interaction with AR (AR [3]; 10 nM DHT): Androgen-dependent interactions were demonstrated
